# “Also recorded” adds a separate entry of the source.
# Assays:
# [1] = test system: bacterial protein synthesis; conditions: cited from earlier work
# [2] = cited from earlier work
# [3] = test system: Escherichia coli (ATCC 25922); test: minimum inhibitory concentration, broth dilution technique; type: cell-based; conditions: E. coli, liquid culture
# Description: We reasoned that this modification would provide the cleanest test for probing the ionic contribution, since hydrogen bond donor abilities, electronegativity and steric demand are similar for both functional groups. In order to learn how well the model system correlates with in vivo activity, we checked the new compounds for antibacterial activity against three bacterial strains using the disc method (Kirby-Bauer technique). The minimum inhibitory concentrations (MICs) of the compounds were then determined using the broth dilution technique. For antibiotic testing protocols, see: (a) Disk testing protocols: Phillips, I.; Williams, D., in Laboratory Methods in Antimicrobial Chemotherapy, Garrod, L. (ed.) Churchill Livingstone Press: Edinburgh, 1978, pp. 3-30. (b) MIC determination: Waterworth, P. M., in Laboratory Methods in Antimicrobial Chemotherapy, Garrod, L. (ed.) Churchill Livingstone Press: Edinburgh, 1978, pp. 31-40; Barry, A. L. The Antimicrobic Susceptibility Test: Principles and Practice, Lea and Febiger: Philadelphia (1976). (c) Standards: Lorian, V., Antibiotics in Laboratory Medicine (2nd. ed.), Williams and Wilkins: Baltimore, 1986.
# FIG. 39A gives the zone diameters measured for the three bacterial strains. The zone diameters measured for the strains with known antibiotics are well within the accepted limits. […] It is worth noting that some testing protocols recommend overnight growth of the cultures, rather than the minimum time required to obtain good growth of the control. MIC values were tested for several of the control antibiotics using overnight growth, and the MIC values observed were 2-4× greater than those observed for 4-6 hour growth.
# Minimal Inhibitory Concentration (MIC) testing. E. coli ATCC 25922 was grown in Mueller-Hinton broth (cation-adjusted, BBL Microbiology Systems) to an optical density of approx. 0.5 (absorbance read at 600 nm), then diluted to an OD600 of 0.1. Samples of antibiotic were prepared in Mueller-Hinton broth, typically a series of 2-fold dilutions from […]. […] The absorbance of each sample was read (1=600 nm), and MIC was considered to be the lowest antibiotic concentration at which the absorbance was less than 1% of the no-antibiotic control.
# AS-wt = test: SPR binding of aminoglycosides to decoding region A-site model AS-wt; design: species or system E. coli; conditions: for RNA binding, affinity or specificity for AS-wt (in words): Example 4; for specificity for AS-wt over negative controls (in words): Example 5, HBS-buffer
# Method in brief: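 Compounds were injected over biotinylated RNA immobilized on streptavidin SPR chips in HBS (150 mM NaCl, 10 mM HEPES pH 7.4, 3.4 mM EDTA) […]. KD was obtained by non-linear fitting of equilibrium binding isotherms; the KD(AS-U1495A)/KD(AS-wt) ratio defines specificity.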
# Rev-RRE = conditions: cited from earlier work
# AS-U1495A = test: SPR binding of aminoglycosides to AS-U1495A; conditions: HBS-buffer
# Protocol: The RNA binding properties of 100-800 were analyzed using a surface plasmon resonance based assay that was recently developed in these laboratories. This assay allows the determination of both affinity and specificity of small molecule-RNA interactions. For the analysis, the compounds were injected over a matrix containing RNA that was immobilized through a biotin tag and the equilibrium binding values were recorded at various concentrations.
# Non-linear curve fitting was then used to determine the values of the dissociation constants (KD). The specificity of binding, i.e. the ability to discriminate between different RNA sequences was evaluated by comparing the binding to the target sequence (AS-wt) and the negative control (AS-U1495A). […]
# For the quantitative measurement of aminoglycoside binding to these sequences, we utilized our recently developed SPR-based assay. […]
# In the same manner as illustrated for paromomycin, a panel of aminoglycosides was screened and the results are compiled in the table of FIGS. 46 and 47. […] All data were recorded under near physiological salt conditions (HBS-buffer: 150 mM NaCl, 10 mM HEPES, pH7.4, 3.4 mM EDTA) unless noted otherwise. […]
# Plasmon resonance and antimicrobial testing for Example 4. Synthesis of the biotinylated RNA and surface plasmon resonance detected binding experiments were performed as described vida supra. […]
Structure (SMILES),effect on bacterial protein synthesis (in words) [1],pKa of N3 [2],antibacterial activity / MIC compared with neomycin B (in words) [3],"RNA binding, affinity or specificity for AS-wt (in words) (AS-wt)",specificity for AS-wt over negative controls (in words) (AS-wt),reported inhibitory effect on Rev-RRE binding (in words) (Rev-RRE),"reported inhibition difference between neomycin B and paromomycin, Rev-RRE (Rev-RRE; gel-shift assays) [fold]",weaker binding to AS-U1495A than to AS-wt (AS-U1495A) [fold],"temperature dependence of binding to AS-wt (in words) (AS-wt; Neo16bd, AS-wt and RBE3)"
NC[C@@H]1O[C@H](O[C@H]2[C@@H](O)[C@H](O[C@@H]3[C@@H](O)[C@H](N)C[C@H](N)[C@H]3O[C@H]3O[C@H](CN)[C@@H](O)[C@H](O)[C@H]3N)O[C@@H]2CO)[C@H](N)[C@@H](O)[C@@H]1O [Neomycin B],induces miscoding during translation,< 6,within accepted ranges for sensitive E. coli strains,"tightest binder; also recorded: further improvement of the overall affinity, without affecting specificity",specific for AS-wt over the negative control RNAs,,,,
NC[C@@H]1O[C@H](O[C@H]2[C@@H](O)[C@H](O[C@@H]3[C@@H](O)[C@H](N)C[C@H](N)[C@H]3O[C@H]3O[C@H](CO)[C@@H](O)[C@H](O)[C@H]3N)O[C@@H]2CO)[C@H](N)[C@@H](O)[C@@H]1O [Paromomycin],,,,somewhat higher affinity but lower specificity,specific for AS-wt over the negative control RNAs,virtually no inhibitory effect,> 100,20,tighter at lower temperature
